For the experiment, the target named is PHIS-PDiTPx2235 (Dirofilaria immitis, UniProt O17433). Type of experiment: biochemical, D. immitis. Conditions: for Percent protection (Mean ± SD): PHIS-PDiTPx2235 0.75 mg/ml, DTT 10 mM.

Structures are written as SMILES. Like-named read-outs stand apart in the source and are kept apart here.

PHIS-PDiTPx2235, sequence (O17433 whole entry, looked up): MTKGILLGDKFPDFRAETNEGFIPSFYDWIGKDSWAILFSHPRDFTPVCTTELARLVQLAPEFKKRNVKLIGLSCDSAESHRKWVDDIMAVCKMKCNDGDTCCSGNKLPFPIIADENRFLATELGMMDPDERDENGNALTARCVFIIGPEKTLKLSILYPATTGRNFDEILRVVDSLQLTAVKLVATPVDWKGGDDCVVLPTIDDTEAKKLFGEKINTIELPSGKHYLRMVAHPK

`CCN1C(=O)C=CC1=O` [NEM, N-ethylmaleimide]: the “Percent protection (Mean ± SD)” value reads like this: (NEM 0.1 mM) 97.3 ± 2.40%; (NEM 1.0 mM) 76.7 ± 1.13%; (NEM 2.0 mM) 77.9 ± 1.87%; (NEM 4.0 mM) 58.4 ± 1.57%; (NEM 8.0 mM) 21.1 ± 0.33%; (NEM 16.0 mM) 0.0 ± 0.0%. The “Percent protection (Mean ± SD)” value (NEM 32.0 mM) is on record as 0.0 ± 0.0%. Besides, the “inhibition of H2O2 removal by PHIS-PDiTPx2235” value (inhibition concentration dependent (Table 5)) is reported as “prevented PHIS-PDiTPx2235 from removing H2O2”.

For the origin of these results see patent US6352836B1 (priority 1997, dated 2002).
